Results from ChEMBL document CHEMBL3860077, “Synthesis and pharmacological evaluation of conformationally constrained glutamic acid higher homologues” (Bioorg Med Chem, 2016).

What was measured:
[1] = Displacement of [3H]-AMPA from AMPA receptor in Sprague-Dawley rat brain synaptic membranes after 30 mins by scintillation counting method
[2] = Displacement of [3H]-KAIN from kainic acid receptor in Sprague-Dawley rat brain synaptic membranes after 60 mins by scintillation counting method
Glutamate NMDA receptor = assay: Displacement of [3H]-CGP39653 from NMDA receptor in Sprague-Dawley rat brain synaptic membranes after 60 mins by scintillation counting method
[3] = Displacement of [3H]-KAIN from kainic acid receptor in rat cortical membranes by scintillation counting method; assay type: cell membranes
[4] = Displacement of [3H]-AMPA from AMPA receptor in rat cortical membranes by scintillation counting method; assay type: cell membranes

Row | Compound | IC50 [1] | IC50 [2] | Ki (Glutamate NMDA receptor) | pKi (Glutamate NMDA receptor) | IC50 [3] | IC50 [4]
1 | N[C@@H](C[C@@H]1CC(CCC(=O)O)=NO1)C(=O)O (racemic) | > 100 µM | > 100 µM | 13 µM | 4.91 | – | –
2 | N[C@@H](C[C@H]1CC(c2cccc(C(=O)O)c2)=NO1)C(=O)O (racemic) | > 100 µM | > 100 µM | 100 µM | – | – | –
3 | N[C@@H](C[C@H]1CC(CCC(=O)O)=NO1)C(=O)O (racemic) | > 100 µM | > 100 µM | > 100 µM | – | – | –
4 | N[C@@H](C[C@@H]1CC(c2ccc(C(=O)O)cc2)=NO1)C(=O)O (racemic) | > 100 µM | > 100 µM | > 100 µM | – | – | –
5 | N[C@@H](C[C@H]1CC(c2ccc(C(=O)O)cc2)=NO1)C(=O)O (racemic) | > 100 µM | > 100 µM | > 100 µM | – | – | –
6 | N[C@@H](C[C@@H]1CC(C(=O)O)=NO1)C(=O)O (racemic) | – | – | – | – | > 100 µM | > 100 µM
7 | N[C@@H](C[C@@H]1CC(/C=C/C(=O)O)=NO1)C(=O)O (racemic) | > 100 µM | > 100 µM | > 100 µM | – | – | –
8 | N[C@@H](C[C@@H]1CC(c2cccc(C(=O)O)c2)=NO1)C(=O)O (racemic) | > 100 µM | > 100 µM | 22 µM | – | – | –
9 | N[C@@H](C[C@H]1CC(C(=O)O)=NO1)C(=O)O (racemic) | – | – | – | – | > 100 µM | > 100 µM
10 | N[C@@H](C[C@@H]1CC(c2ccccc2C(=O)O)=NO1)C(=O)O (racemic) | > 100 µM | > 100 µM | 3.6 µM | – | – | –
11 | N[C@@H](C[C@H]1CC(c2ccccc2C(=O)O)=NO1)C(=O)O (racemic) | > 100 µM | > 100 µM | 22 µM | 4.69 | – | –
12 | N[C@@H](C[C@H]1CC(/C=C/C(=O)O)=NO1)C(=O)O (racemic) | > 100 µM | > 100 µM | 68 µM | – | – | –
